For one assay, the target named is TAS2R38-AVI (Homo sapiens, UniProt P59533, A262V). The assay is described as follows: Calcium mobilization assay, HEK293T-Gα16gust44 cells expressing TAS2R38-AVI. A general note: Calcium assays in cells follow changes in intracellular calcium, usually with a dye or a luminescent sensor.
For another assay, the target named is T1, TAS2R39 (Homo sapiens, UniProt P59534).
T1 sequence (P59534 1-338): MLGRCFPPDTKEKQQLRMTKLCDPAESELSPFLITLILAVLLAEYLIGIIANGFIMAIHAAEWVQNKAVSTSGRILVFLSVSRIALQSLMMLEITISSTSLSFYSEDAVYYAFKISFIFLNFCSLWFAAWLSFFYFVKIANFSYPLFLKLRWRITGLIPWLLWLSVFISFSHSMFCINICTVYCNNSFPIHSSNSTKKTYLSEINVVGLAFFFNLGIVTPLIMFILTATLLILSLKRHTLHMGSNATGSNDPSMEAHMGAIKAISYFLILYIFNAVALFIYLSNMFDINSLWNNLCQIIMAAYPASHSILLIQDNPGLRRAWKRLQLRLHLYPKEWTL
The assay is described as follows: Calcium mobilization assay, HEK293T-Gα16gust44 cells expressing TAS2R39. The conditions noted are these: maximal concentration tested: sucralose 100 mM, neotame 30 µM, Ace-K 300 mM, RebA 4 mM, RebM 4 mM, mogroside V 5 mM, erythritol 200 mM, D-allulose 500 mM, thaumatin 100 mM.

In another assay the target is TAS2R38-PAV (Homo sapiens, UniProt P59533, A49P/I296V). The assay is described as follows: Calcium mobilization assay, HEK293T-Gα16gust44 cells expressing TAS2R38-PAV.
The target of the next assay is T2, TAS2R20 (Homo sapiens, UniProt P59543).
T2 sequence (P59543 1-309): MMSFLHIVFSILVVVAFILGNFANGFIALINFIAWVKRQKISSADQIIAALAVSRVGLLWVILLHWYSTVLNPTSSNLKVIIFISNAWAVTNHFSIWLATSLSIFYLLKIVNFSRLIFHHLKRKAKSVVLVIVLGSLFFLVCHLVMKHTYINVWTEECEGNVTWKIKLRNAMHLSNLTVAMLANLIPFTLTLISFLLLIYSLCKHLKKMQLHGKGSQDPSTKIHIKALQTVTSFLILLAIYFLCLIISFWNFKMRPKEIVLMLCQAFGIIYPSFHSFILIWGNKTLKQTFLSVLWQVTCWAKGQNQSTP
The assay is described as follows: Calcium mobilization assay, HEK293T-Gα16gust44 cells expressing TAS2R20. The conditions noted are these: maximal concentration tested: sucralose 100 mM, neotame 30 µM, Ace-K 300 mM, RebA 4 mM, RebM 4 mM, mogroside V 5 mM, erythritol 200 mM, D-allulose 500 mM, thaumatin 100 mM.

Another assay addresses TAS2R40 (Homo sapiens, UniProt P59535). The assay is described as follows: Calcium mobilization assay, HEK293T-Gα16gust44 cells expressing TAS2R40. Particulars: maximal concentration tested: sucralose 100 mM, neotame 30 µM, Ace-K 300 mM, RebA 4 mM, RebM 4 mM, mogroside V 5 mM, erythritol 200 mM, D-allulose 500 mM, thaumatin 100 mM.
For another assay, the target named is T3, TAS2R8 (Homo sapiens, UniProt Q9NYW2).
T3 sequence (Q9NYW2 1-309): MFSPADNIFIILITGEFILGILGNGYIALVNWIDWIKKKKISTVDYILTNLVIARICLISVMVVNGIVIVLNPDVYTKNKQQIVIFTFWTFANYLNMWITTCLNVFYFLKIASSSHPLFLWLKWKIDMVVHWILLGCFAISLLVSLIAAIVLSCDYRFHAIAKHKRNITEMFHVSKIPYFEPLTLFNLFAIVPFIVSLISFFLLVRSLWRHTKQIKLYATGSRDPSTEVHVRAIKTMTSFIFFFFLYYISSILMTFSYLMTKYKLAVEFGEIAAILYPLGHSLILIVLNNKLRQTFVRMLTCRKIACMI
The assay is described as follows: Calcium mobilization assay, HEK293T-Gα16gust44 cells expressing TAS2R8. The conditions noted are these: maximal concentration tested: sucralose 100 mM, neotame 30 µM, Ace-K 300 mM, RebA 4 mM, RebM 4 mM, mogroside V 5 mM, erythritol 200 mM, D-allulose 500 mM, thaumatin 100 mM.

Sequence of TAS2R40 (P59535 whole entry): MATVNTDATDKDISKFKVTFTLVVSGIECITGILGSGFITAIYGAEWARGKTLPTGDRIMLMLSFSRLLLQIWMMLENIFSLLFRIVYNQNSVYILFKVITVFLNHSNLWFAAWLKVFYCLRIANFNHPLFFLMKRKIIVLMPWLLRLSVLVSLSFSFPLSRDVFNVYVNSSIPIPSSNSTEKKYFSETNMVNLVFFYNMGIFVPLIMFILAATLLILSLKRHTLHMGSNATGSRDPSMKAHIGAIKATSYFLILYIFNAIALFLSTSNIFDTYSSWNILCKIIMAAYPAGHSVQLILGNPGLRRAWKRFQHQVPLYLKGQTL
Sequence of TAS2R38-PAV (P59533 whole entry A49P/I296V): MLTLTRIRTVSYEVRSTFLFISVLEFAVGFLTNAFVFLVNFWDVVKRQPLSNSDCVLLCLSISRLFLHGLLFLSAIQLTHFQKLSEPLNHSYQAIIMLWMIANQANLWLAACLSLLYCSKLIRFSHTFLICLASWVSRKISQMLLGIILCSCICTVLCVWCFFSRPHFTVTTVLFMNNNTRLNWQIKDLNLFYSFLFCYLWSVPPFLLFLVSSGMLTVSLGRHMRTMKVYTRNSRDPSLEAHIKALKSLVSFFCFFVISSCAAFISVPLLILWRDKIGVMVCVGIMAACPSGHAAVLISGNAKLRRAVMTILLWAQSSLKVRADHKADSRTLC
Sequence of TAS2R38-AVI (P59533 whole entry A262V): as the sequence (P59533 whole entry A49P/I296V) above, with P49A, A262V, V296I counted along it
Description for TAS2R20: (§1) Different concentration ranges were tested depending on the injected sweet compound. […] All of the concentration-receptor combinations were measured in triplicate, and each experiment was repeated at least 3 times. The Ca^2+ change was expressed as a fractional change in fluorescent light intensity: ΔF/F = (F − F0)/F0, where F was the fluorescent light intensity at each point, and F0 was the value of fluorescent light emitted prior to stimulus application. To calculate dose–response relationships, the changes in fluorescence upon stimulus application were averaged, mock-subtracted and baseline-corrected. The resulting obtained dose–response data were adjusted by using a 4-parameter logistic equation.
Description for TAS2R38-AVI: (§2) Different concentration ranges were tested depending on the injected sweet compound. […] All of the concentration-receptor combinations were measured in triplicate, and each experiment was repeated at least 3 times. The Ca^2+ change was expressed as a fractional change in fluorescent light intensity: ΔF/F = (F − F0)/F0, where F was the fluorescent light intensity at each point, and F0 was the value of fluorescent light emitted prior to stimulus application. To calculate dose–response relationships, the changes in fluorescence upon stimulus application were averaged, mock-subtracted and baseline-corrected. The resulting obtained dose–response data were adjusted by using a 4-parameter logistic equation. The half-maximal effective concentration (EC50) was calculated by using SigmaPlot software (Systat Software, San Jose, CA, USA) as described in supplemental Supplementary Figs. S1, S2, and S3.
Description for TAS2R38-PAV: as §2
Description for TAS2R39: as §1
Description for TAS2R40: as §1
Description for TAS2R8: as §2

Take `O=C(CO)[C@H](O)[C@H](O)[C@H](O)CO` [D-allulose]: the “concentrations at which TAS2R38-AVI was activated” value on TAS2R38-AVI is reported as > 300 mM. Further, the “Response of TAS2R39” value at TAS2R39 was “−”. For the same compound, the “concentrations at which TAS2R38-PAV was activated” value on TAS2R38-PAV is given as > 300 mM. For the same compound, the “Response of TAS2R20” value at TAS2R20 was “−”. The “Response of TAS2R40” value at TAS2R40 is reported as “−”. On TAS2R8, the “Response of TAS2R8” value was “−”.

Take `C=C1C[C@@]23CC[C@H]4[C@@](C)(CCC[C@@]4(C)C(=O)O[C@@H]4O[C@H](CO)[C@@H](O)[C@H](O[C@@H]5O[C@H](CO)[C@@H](O)[C@H](O)[C@H]5O)[C@H]4O[C@@H]4O[C@H](CO)[C@@H](O)[C@H](O)[C@H]4O)[C@@H]2CC[C@]1(O[C@@H]1O[C@H](CO)[C@@H](O)[C@H](O[C@@H]2O[C@H](CO)[C@@H](O)[C@H](O)[C@H]2O)[C@H]1O[C@@H]1O[C@H](CO)[C@@H](O)[C@H](O)[C@H]1O)C3` [RebM, Rebaudioside M]: at TAS2R39, the “Response of TAS2R39” value is “−”. Also, on TAS2R20, the “Response of TAS2R20” value is reported as “−”. For the same compound, at TAS2R40, the “Response of TAS2R40” value is on record as “−”. The “Response of TAS2R8” value at TAS2R8 is “−”.

As to `OC[C@@H](O)[C@@H](O)CO` [Erythritol, erythritol], the “Response of TAS2R39” value at TAS2R39 is “−”. Moreover, the “Response of TAS2R20” value at TAS2R20 is recorded as “−”. In addition, at TAS2R40, the “Response of TAS2R40” value was “−”. Moreover, the “Response of TAS2R8” value at TAS2R8 is “−”.

For the compound `CC1=CC(=O)NS(=O)(=O)O1` [Ace-K, acesulfame-K], the “Response of TAS2R39” value at TAS2R39 is reported as “−”. Further, the “Response of TAS2R20” value on TAS2R20 is listed as “−”. Besides, the “Response of TAS2R40” value on TAS2R40 is reported as “−”. For the same compound, the “Response of TAS2R8” value at TAS2R8 is “−”.

Regarding thaumatin, the “Response of TAS2R39” value at TAS2R39 was “−”. The “Response of TAS2R20” value on TAS2R20 is on record as “−”. In addition, the “Response of TAS2R40” value at TAS2R40 is on record as “−”. For the same compound, the “Response of TAS2R8” value on TAS2R8 is “−”.

Turning to `COC(=O)[C@H](Cc1ccccc1)NC(=O)[C@H](CC(=O)O)NCCC(C)(C)C` [Neotame], the “Response of TAS2R39” value at TAS2R39 is “−”. For the same compound, the “Response of TAS2R20” value at TAS2R20 is listed as “−”. Moreover, on TAS2R40, the “Response of TAS2R40” value is “−”. In addition, the “Response of TAS2R8” value on TAS2R8 was “−”.

Take `C[C@H](CC[C@@H](O[C@@H]1O[C@H](CO[C@@H]2O[C@H](CO)[C@@H](O)[C@H](O)[C@H]2O)[C@@H](O)[C@H](O)[C@H]1O[C@@H]1O[C@H](CO)[C@@H](O)[C@H](O)[C@H]1O)C(C)(C)O)[C@H]1CC[C@@]2(C)[C@@H]3CC=C4[C@@H](CC[C@H](O[C@@H]5O[C@H](CO[C@@H]6O[C@H](CO)[C@@H](O)[C@H](O)[C@H]6O)[C@@H](O)[C@H](O)[C@H]5O)C4(C)C)[C@]3(C)[C@H](O)C[C@]12C` [Mogroside V, mogroside V]: at TAS2R39, the “Response of TAS2R39” value was “−”. Besides, the EC50 on TAS2R38-PAV (read-out: TAS2R38-PAV EC50, text prints TAS2R38) came to 253 ± 139 µM. In addition, the “Response of TAS2R20” value at TAS2R20 is listed as “−”. Besides, the “Response of TAS2R40” value at TAS2R40 was “−”. The “Response of TAS2R8” value on TAS2R8 was “−”.

Regarding `OC[C@H]1O[C@H](O[C@]2(CCl)O[C@H](CCl)[C@@H](O)[C@@H]2O)[C@H](O)[C@@H](O)[C@H]1Cl` [Sucralose, sucralose], the “Response of TAS2R39” value at TAS2R39 is “−”. Besides, the “Response of TAS2R20” value at TAS2R20 is listed as “−”. The “Response of TAS2R40” value at TAS2R40 is on record as “−”. In addition, the “Response of TAS2R8” value on TAS2R8 is “−”.

By EC50 is commonly meant the concentration at which the effect is half-maximal.

Values taken from PMC11631053, “A receptor-based assay to study the sweet and bitter tastes of sweeteners and binary sweet blends: the SWEET project” (Chemical Senses, 2024).
